Measurements reported in ChEMBL document CHEMBL4507288 (2021).

Assays:
[1] = target: Atypical kinase COQ8A, mitochondrial (Homo sapiens) (UniProt Q8NI60); details: Compound concentration 1000.0 nM
[2] = target: Inhibitor of nuclear factor kappa-B kinase subunit beta (Homo sapiens) (UniProt O14920); details: Compound concentration 1000.0 nM
[3] = target: Mitogen-activated protein kinase kinase kinase 3 (Homo sapiens) (UniProt Q99759); details: Compound concentration 1000.0 nM
[4] = target: Serine/threonine-protein kinase PAK 3 (Homo sapiens) (UniProt O75914); details: Compound concentration 1000.0 nM
[5] = target: Ephrin type-A receptor 2 (Homo sapiens) (UniProt P29317); details: Compound concentration 1000.0 nM
[6] = test system: Receptor-type tyrosine-protein kinase FLT3 (Homo sapiens), P36888 [UNDEFINED MUTATION]; details: Compound concentration 1000.0 nM
[7] = target: Receptor-interacting serine/threonine-protein kinase 4 (Homo sapiens) (UniProt P57078); details: Compound concentration 1000.0 nM
[8] = target: Tyrosine-protein kinase Srms (Homo sapiens) (UniProt Q9H3Y6); details: Compound concentration 1000.0 nM
[9] = target: Calcium/calmodulin-dependent protein kinase type II subunit delta (Homo sapiens) (UniProt Q13557); details: Compound concentration 1000.0 nM
[10] = test system: Epidermal growth factor receptor (Homo sapiens), P00533 [UNDEFINED MUTATION]; details: Compound concentration 1000.0 nM
[11] = target: Ribosomal protein S6 kinase alpha-5 (Homo sapiens) (UniProt O75582); details: Compound concentration 1000.0 nM
[12] = target: Cyclin-dependent kinase 5 (Homo sapiens) (UniProt Q00535); details: Compound concentration 1000.0 nM
[13] = test system: Receptor-type tyrosine-protein kinase FLT3 (Homo sapiens), P36888 [D835Y]; details: Compound concentration 1000.0 nM
[14] = target: Cyclin-dependent kinase 16 (Homo sapiens) (UniProt Q00536); details: Compound concentration 1000.0 nM
[15] = test system: Epidermal growth factor receptor (Homo sapiens), P00533 [G719C]; details: Compound concentration 1000.0 nM
[16] = target: Ribosomal protein S6 kinase alpha-4 (Homo sapiens) (UniProt O75676); details: Compound concentration 1000.0 nM
[17] = target: Tyrosine-protein kinase Blk (Homo sapiens) (UniProt P51451); details: Compound concentration 1000.0 nM
[18] = target: Cytoplasmic tyrosine-protein kinase BMX (Homo sapiens) (UniProt P51813); details: Compound concentration 1000.0 nM
[19] = target: Serine/threonine-protein kinase 35 (Homo sapiens) (UniProt Q8TDR2); details: Compound concentration 1000.0 nM
[20] = target: Casein kinase II subunit alpha' (Homo sapiens) (UniProt P19784); details: Compound concentration 1000.0 nM
[21] = target: Phosphatidylinositol 4,5-bisphosphate 3-kinase catalytic subunit delta isoform (Homo sapiens) (UniProt O00329); details: Compound concentration 1000.0 nM
[22] = target: Serine/threonine-protein kinase MRCK gamma (Homo sapiens) (UniProt Q6DT37); details: Compound concentration 1000.0 nM
[23] = test system: Receptor-type tyrosine-protein kinase FLT3 (Homo sapiens), P36888 [R834Q]; details: Compound concentration 1000.0 nM
[24] = target: Hepatocyte growth factor receptor (Homo sapiens) (UniProt P08581); details: Compound concentration 1000.0 nM
[25] = target: Calcium-dependent protein kinase 1 (Plasmodium falciparum) (UniProt P62344); details: Compound concentration 1000.0 nM
[26] = target: TGF-beta receptor type-2 (Homo sapiens) (UniProt P37173); details: Compound concentration 1000.0 nM
[27] = target: Cyclin-G-associated kinase (Homo sapiens) (UniProt O14976); details: Compound concentration 1000.0 nM
[28] = target: NUAK family SNF1-like kinase 2 (Homo sapiens) (UniProt Q9H093); details: Compound concentration 1000.0 nM
[29] = target: Ribosomal protein S6 kinase alpha-4 (Homo sapiens) (UniProt O75676); details: Compound concentration 1000.0 nM; remark: listed apart in the source
[30] = test system: ALK tyrosine kinase receptor (Homo sapiens), Q9UM73 [C1156Y]; details: Compound concentration 1000.0 nM
[31] = target: Tyrosine-protein kinase receptor Tie-1 (Homo sapiens) (UniProt P35590); details: Compound concentration 1000.0 nM
[32] = target: Tyrosine-protein kinase JAK2 (Homo sapiens) (UniProt O60674); details: Compound concentration 1000.0 nM
[33] = target: Dual specificity protein kinase CLK4 (Homo sapiens) (UniProt Q9HAZ1); details: Compound concentration 1000.0 nM
[34] = target: Serine/threonine-protein kinase MRCK beta (Homo sapiens) (UniProt Q9Y5S2); details: Compound concentration 1000.0 nM
[35] = target: Mitogen-activated protein kinase kinase kinase 20 (Homo sapiens) (UniProt Q9NYL2); details: Compound concentration 1000.0 nM
[36] = target: Focal adhesion kinase 1 (Homo sapiens) (UniProt Q05397); details: Compound concentration 1000.0 nM
[37] = test system: Tyrosine-protein kinase ABL1 (Homo sapiens), P00519 [Q252H]; details: Compound concentration 1000.0 nM
[38] = test system: Tyrosine-protein kinase ABL1 (Homo sapiens), P00519 [M351T]; details: Compound concentration 1000.0 nM
[39] = target: Tyrosine-protein kinase Tec (Homo sapiens) (UniProt P42680); details: Compound concentration 1000.0 nM
[40] = target: Protein-tyrosine kinase 2-beta (Homo sapiens) (UniProt Q14289); details: Compound concentration 1000.0 nM
[41] = target: Leucine-rich repeat serine/threonine-protein kinase 2 (Homo sapiens) (UniProt Q5S007); details: Compound concentration 1000.0 nM
[42] = target: Phosphatidylinositol 4-phosphate 5-kinase type-1 alpha (Homo sapiens) (UniProt Q99755); details: Compound concentration 1000.0 nM
[43] = target: Tyrosine-protein kinase HCK (Homo sapiens) (UniProt P08631); details: Compound concentration 1000.0 nM
[44] = target: 5-hydroxytryptamine receptor 2A (Homo sapiens, UniProt P28223); assay: GPCRScan assay: inhibition of 5-HT2A; set-up: radioligand conc. used [nm] 1.2 – 2.4, parental cells HEKT
[45] = target: Sodium-dependent dopamine transporter (Homo sapiens, UniProt Q01959); assay: GPCRScan assay: inhibition of DAT; set-up: radioligand conc. used [nm] 3.6 – 16.0, parental cells stable HEK
Chain of Sodium-dependent dopamine transporter (Q01959 whole entry): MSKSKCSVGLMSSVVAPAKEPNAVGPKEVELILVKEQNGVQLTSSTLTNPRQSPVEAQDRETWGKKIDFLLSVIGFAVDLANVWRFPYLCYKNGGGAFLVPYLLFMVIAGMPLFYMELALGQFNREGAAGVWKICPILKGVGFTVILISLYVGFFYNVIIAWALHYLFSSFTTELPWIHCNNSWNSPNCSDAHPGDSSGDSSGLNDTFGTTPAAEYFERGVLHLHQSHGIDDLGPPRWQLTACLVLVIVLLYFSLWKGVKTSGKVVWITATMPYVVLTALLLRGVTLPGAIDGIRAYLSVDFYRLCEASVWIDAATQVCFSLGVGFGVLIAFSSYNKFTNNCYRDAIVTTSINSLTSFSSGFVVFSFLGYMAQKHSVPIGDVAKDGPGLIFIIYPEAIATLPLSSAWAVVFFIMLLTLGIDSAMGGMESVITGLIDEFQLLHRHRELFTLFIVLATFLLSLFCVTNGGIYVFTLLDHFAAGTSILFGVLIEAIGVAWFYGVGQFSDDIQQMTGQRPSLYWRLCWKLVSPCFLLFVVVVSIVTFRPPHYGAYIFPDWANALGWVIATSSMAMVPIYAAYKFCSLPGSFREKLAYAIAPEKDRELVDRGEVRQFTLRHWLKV

Chain of Ribosomal protein S6 kinase alpha-4 (Homo sapiens) (O75676 whole entry, looked up): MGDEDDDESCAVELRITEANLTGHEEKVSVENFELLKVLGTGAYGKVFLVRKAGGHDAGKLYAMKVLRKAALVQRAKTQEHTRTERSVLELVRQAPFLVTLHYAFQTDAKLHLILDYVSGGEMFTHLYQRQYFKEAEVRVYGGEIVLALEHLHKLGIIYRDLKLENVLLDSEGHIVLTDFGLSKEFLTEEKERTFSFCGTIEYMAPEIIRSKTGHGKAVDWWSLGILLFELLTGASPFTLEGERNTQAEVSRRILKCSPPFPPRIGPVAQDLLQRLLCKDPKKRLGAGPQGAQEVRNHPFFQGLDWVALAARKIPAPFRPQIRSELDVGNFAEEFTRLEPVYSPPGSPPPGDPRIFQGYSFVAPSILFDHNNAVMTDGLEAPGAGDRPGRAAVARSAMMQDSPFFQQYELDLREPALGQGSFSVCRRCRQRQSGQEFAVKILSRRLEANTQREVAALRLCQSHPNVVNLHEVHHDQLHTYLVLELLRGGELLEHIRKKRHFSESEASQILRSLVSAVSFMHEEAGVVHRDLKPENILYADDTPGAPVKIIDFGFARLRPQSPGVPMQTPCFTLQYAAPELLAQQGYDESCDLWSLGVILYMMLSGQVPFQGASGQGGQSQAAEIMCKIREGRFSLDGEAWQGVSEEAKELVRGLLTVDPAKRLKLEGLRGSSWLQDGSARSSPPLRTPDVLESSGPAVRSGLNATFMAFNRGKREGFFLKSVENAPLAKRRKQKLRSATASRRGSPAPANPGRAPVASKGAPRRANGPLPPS
Chain of TGF-beta receptor type-2 (Homo sapiens) (P37173 whole entry): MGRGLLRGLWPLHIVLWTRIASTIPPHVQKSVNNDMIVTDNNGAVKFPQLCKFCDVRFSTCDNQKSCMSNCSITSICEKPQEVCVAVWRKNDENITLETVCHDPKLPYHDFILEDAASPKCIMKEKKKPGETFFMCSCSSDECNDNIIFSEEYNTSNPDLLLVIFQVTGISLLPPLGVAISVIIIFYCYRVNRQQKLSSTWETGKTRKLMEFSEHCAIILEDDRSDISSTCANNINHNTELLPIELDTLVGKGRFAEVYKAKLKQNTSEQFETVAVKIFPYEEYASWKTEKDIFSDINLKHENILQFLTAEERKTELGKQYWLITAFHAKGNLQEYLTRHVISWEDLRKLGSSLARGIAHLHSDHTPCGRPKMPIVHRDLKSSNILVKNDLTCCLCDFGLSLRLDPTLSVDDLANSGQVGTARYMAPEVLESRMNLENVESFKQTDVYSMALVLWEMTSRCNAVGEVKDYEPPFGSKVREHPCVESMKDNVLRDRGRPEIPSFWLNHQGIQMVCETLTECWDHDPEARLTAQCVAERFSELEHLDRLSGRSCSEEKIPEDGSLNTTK
Chain of Cyclin-dependent kinase 16 (Homo sapiens) (Q00536 whole entry): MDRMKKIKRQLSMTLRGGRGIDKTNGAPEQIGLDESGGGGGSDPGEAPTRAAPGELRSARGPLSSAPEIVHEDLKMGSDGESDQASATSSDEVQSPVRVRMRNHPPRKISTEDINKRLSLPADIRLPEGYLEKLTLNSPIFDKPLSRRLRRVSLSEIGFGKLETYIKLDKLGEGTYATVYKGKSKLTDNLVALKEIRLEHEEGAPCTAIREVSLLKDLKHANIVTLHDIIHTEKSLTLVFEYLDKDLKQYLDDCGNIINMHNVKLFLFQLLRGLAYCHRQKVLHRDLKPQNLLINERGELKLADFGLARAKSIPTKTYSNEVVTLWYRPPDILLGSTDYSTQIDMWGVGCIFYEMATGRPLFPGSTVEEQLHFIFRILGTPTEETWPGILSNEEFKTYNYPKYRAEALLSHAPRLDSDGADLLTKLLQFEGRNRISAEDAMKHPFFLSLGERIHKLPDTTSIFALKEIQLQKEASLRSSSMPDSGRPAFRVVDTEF
Chain of Inhibitor of nuclear factor kappa-B kinase subunit beta (Homo sapiens) (O14920 whole entry): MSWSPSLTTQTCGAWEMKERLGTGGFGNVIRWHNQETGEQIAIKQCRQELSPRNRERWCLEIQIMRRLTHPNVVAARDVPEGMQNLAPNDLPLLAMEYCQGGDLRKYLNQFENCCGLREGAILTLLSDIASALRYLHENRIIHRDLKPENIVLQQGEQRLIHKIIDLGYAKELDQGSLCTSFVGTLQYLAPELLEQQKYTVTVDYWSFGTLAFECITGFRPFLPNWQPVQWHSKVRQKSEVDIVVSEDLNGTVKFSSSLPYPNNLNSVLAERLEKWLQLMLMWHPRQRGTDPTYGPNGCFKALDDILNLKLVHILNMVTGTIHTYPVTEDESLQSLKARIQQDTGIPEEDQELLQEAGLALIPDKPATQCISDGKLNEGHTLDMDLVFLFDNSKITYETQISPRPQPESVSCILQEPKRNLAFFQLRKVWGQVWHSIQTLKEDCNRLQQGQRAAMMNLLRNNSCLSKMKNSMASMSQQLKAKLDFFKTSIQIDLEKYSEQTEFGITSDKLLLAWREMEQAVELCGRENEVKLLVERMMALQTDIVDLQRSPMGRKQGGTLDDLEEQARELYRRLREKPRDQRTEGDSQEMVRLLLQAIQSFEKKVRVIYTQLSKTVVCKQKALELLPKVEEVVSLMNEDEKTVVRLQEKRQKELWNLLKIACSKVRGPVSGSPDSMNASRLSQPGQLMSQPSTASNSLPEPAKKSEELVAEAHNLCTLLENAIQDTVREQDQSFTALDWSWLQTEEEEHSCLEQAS
Chain of Serine/threonine-protein kinase 35 (Homo sapiens) (Q8TDR2 whole entry): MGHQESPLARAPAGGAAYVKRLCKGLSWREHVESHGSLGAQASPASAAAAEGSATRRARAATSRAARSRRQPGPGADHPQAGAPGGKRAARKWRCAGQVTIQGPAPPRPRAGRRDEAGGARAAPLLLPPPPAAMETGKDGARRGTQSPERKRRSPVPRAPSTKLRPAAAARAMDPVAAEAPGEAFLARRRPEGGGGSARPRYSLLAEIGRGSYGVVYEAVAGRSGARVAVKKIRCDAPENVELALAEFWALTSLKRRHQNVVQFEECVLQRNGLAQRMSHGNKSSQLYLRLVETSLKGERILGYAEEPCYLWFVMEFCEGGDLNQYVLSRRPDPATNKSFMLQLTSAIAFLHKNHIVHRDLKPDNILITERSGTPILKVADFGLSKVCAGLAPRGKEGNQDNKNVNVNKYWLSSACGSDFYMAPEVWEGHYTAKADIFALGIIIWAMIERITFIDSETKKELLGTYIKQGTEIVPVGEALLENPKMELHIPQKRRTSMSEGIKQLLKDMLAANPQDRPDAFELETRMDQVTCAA
Chain of Tyrosine-protein kinase Srms (Homo sapiens) (Q9H3Y6 whole entry): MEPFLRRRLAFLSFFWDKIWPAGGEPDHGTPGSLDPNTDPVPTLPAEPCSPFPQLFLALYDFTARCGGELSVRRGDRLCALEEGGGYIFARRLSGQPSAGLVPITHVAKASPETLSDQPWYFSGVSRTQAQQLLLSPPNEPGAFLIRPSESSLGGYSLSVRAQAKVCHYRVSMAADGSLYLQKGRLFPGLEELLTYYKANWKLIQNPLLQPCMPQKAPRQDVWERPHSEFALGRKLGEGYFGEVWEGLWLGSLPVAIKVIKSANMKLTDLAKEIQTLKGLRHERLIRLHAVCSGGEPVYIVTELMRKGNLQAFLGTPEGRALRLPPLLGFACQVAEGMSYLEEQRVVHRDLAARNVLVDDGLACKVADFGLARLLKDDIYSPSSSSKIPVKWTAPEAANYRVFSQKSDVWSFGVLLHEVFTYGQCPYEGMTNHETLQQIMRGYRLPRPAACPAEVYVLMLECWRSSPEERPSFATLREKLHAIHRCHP
Chain of Tyrosine-protein kinase HCK (Homo sapiens) (P08631 2-526 limits assumed): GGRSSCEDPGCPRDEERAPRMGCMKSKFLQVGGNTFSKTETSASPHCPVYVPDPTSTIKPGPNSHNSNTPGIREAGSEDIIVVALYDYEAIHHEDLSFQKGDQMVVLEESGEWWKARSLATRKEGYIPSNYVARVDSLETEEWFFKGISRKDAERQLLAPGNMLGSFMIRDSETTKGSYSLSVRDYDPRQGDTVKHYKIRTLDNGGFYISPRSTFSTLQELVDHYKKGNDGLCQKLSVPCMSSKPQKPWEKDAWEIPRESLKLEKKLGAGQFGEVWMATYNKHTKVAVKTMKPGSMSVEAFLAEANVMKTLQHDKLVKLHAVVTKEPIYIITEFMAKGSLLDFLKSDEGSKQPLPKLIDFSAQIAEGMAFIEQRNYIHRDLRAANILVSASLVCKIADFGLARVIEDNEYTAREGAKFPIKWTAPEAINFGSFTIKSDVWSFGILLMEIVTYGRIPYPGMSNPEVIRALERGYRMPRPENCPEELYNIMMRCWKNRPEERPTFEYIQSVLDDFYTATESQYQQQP

Compound: O=S(=O)(NC1CCC(c2cc(F)ccc2F)(S(=O)(=O)c2ccc(Cl)cc2)CC1)C(F)(F)F (stereo unspecified) [MRK-560]
- residual activity [1]: 99%
- residual activity [2]: 93%
- residual activity [3]: 100%
- residual activity [4]: 100%
- residual activity [5]: 84%
- residual activity [6]: 97%
- residual activity [7]: 91%
- residual activity [8]: 100%
- residual activity [9]: 100%
- residual activity [10]: 92%
- residual activity [11]: 94%
- residual activity [12]: 100%
- residual activity [13]: 98%
- residual activity [14]: 68%
- residual activity [15]: 100%
- residual activity [16]: 100%
- residual activity [17]: 89%
- residual activity [18]: 93%
- residual activity [19]: 100%
- residual activity [20]: 99%
- residual activity [21]: 100%
- residual activity [22]: 100%
- residual activity [23]: 100%
- residual activity [24]: 100%
- residual activity [25]: 100%
- residual activity [26]: 100%
- residual activity [27]: 89%
- residual activity [28]: 100%
- residual activity [29]: 100%
- residual activity [30]: 100%
- residual activity [31]: 100%
- residual activity [32]: 83%
- residual activity [33]: 84%
- residual activity [34]: 100%
- residual activity [35]: 92%
- residual activity [36]: 90%
- residual activity [37]: 84%
- residual activity [38]: 100%
- residual activity [39]: 100%
- residual activity [40]: 100%
- residual activity [41]: 96%
- residual activity [42]: 100%
- residual activity [43]: 85%

Compound: CC(C)(C)OC(=O)N1CCCC1CNC1CCC(c2cc(F)ccc2F)(S(=O)(=O)c2ccc(Cl)cc2)CC1 (stereo unspecified) [GSI-NC]
- Ki [44]: 0.478 µM
- Ki [45]: 10 µM
- pKi [45]: 5
